{"source": "patent US11299641B2", "about": "“Curable liquid composition, composition-accommodating container, liquid composition discharging device, cured material, and method of manufacturing cured material” (RICOH COMPANY, LTD., priority 2018, dated 2022)"}
{"tested_on": "not given", "assay": "not given", "conditions": "Safety Data Sheet; cited from earlier work"}
{"molecule": "CC(C)(O)C(=O)c1ccc(OCCO)cc1", "note": "[Example B1, 1-[4-(2-hydroxyethoxy)-phenyl]-2-hydroxy-2-methyl-1-propane-1-one]", "skin sensitization, evaluation by SDS": "none"}
{"molecule": "Caprolactone-modified dipentaerythritol hexaacrylate [Example A2]", "skin sensitization, evaluation by SDS": "none"}
{"tested_on": "female mice", "assay": "skin sensitization test in accordance with the Local Lymph Node Assay (LLNA) method, SI value", "format": "in vivo", "conditions": "test substance 50.0 w/v percent in acetone/olive oil 4 to 1, 25 μL per ear once a day for three days, BrdU intake", "protocol": "The SI value was measured in the manner described below according to the skin sensitization test in accordance with the Local Lymph Node Assay (LLNA) method.\nα-hexylcinnamaldehyde (HCA; product of FUJIFILM Wako Pure Chemical Corporation) was used as positive control material.\nA liquid mixture containing acetone (product of FUJIFILM Wako Pure Chemical Corporation) and olive oil (product of Fudimi Pharmaceutical Co., Ltd.) in a volume ratio of 4 to 1 was used as medium.\nFor each of the test substances, the positive control, or the medium control, female mice were acclimated for 8 days including 6-day quarantine. No abnormalities were found in all the mice during the quarantine/acclimation period.\nBased on the body weights measured two days before the initiation of sensitization, the mice were categorized into 2 groups (4 mice/group) by the body weight stratified random sampling method so that the body weight of each individual was within −20 to +20 percent of the average body weight of all the individuals. Each of the tested animals was 8 to 9 weeks old at the time of the initiation of sensitization. The individuals not classified into the groups were excluded from the test.\nThe group compositions of the medium control group and positive control group used for the measurement of the SI value are shown in Table 1.\nThe test substance was weighed in a measuring flask, and the volume of the test substance was adjusted to 1 mL while adding the medium. The thus-prepared test substance solution was placed in a light-shielded airtight container (made of glass).\nThe preparation solution and the medium of each test substance and positive control substance were applied to both ears of each animal in an amount of 25 μL for each. A micropipettor was used for application. The tested animals were subjected to this treatment once a day for three consecutive days.\nAbout 48 hours after the final sensitization, the BrdU preparation solution (0.5 mL) was intraperitoneally administered once to each of the tested animals.\nAll the animals used for the test were observed once or more times a day from the day of the initiation of sensitization to the day of the removal of the auricular lymph node (i.e., the day when the animals were transferred from the animal room). […] Measurement of Body Weights The body weight of each of the tested animals was measured on the day of the initiation of sensitization and on the day of the removal of the auricular lymph node (i.e., the day when the animals were transferred from the animal room). Also, the weight average and the standard error for each group were calculated. Removal of Auricular Lymph Node and Measurement of Weight Thereof About 24 hours after the administration of BrdU, the tested animals were allowed to undergo euthanasia, and their auricular lymph nodes were sampled. The surrounding tissue of each auricular lymph node was removed, and the auricular lymph nodes from both the auricles were collectively weighed. Also, the weight average and the standard error of the auricular lymph nodes for each group were calculated. After the weight measurement, the auricular lymph nodes of each individual were stored in a frozen state using a BIO MEDICAL FREEZER set to −20 degrees C. Measurement of BrdU Intake After returning the auricular lymph nodes to room temperature, the auricular lymph nodes were mashed with the gradual addition of physiological saline, and suspended therein. The thus-obtained suspension was filtrated and thereafter dispensed into a 96-well microplate 3 wells by 3 wells per individual. The thus-dispensed suspensions were measured for intake of BrdU according to the ELISA method. The reagents used were a commercially available kit (Cell Proliferation ELISA, BrdU colorimetric, Cat. No. 1647229, product of Roche Diagnostics K.K.). […]"}
{"molecule": "C=C(C)C(=O)OCCOCCOC(=O)C(=C)C", "note": "[Example A1, Diethylene glycol dimethacrylate]", "SI value in the LLNA test": 1.1}
{"molecule": "C=C(C)C(=O)OCC(O)CO", "note": "(stereo not drawn) [Example A8, Glycerol monomethacrylate]", "SI value in the LLNA test": 1.1}
{"molecule": "Polypropylene glycol diacrylate [Example A4]", "SI value in the LLNA test": 1.5}
{"molecule": "C=CC(=O)OCCCCCCCCCCCCCCCC(C)C", "note": "[Example A5, Isostearyl acrylate]", "SI value in the LLNA test": 1.4}
{"molecule": "Tricyclodecanedimethanol dimethacrylate [Example A6]", "SI value in the LLNA test": 1.3}
{"molecule": "CCC(Cc1ccccc1)(C(=O)c1ccc(N2CCOCC2)cc1)N(C)C", "note": "(stereo not drawn) [Example B3, 2-(dimethylamino)-1-(4-morpholinophenyl)-2-benzyl-1-butanone]", "SI value in the LLNA test": 10}
{"molecule": "C=C(C)C(=O)OCC(CO)OC(=O)C(=C)C", "note": "(stereo not drawn) [Example A7, Glycerol dimethacrylate]", "SI value in the LLNA test": 1.2}
